Here are results for eleven molecules from patent US4120864A, “1,2,4-4H-triazole derivatives” (Rohm and Haas Company, priority 1972, dated 1978).

Each structure is given as a SMILES string. Where a name gives a salt, the structure may show the parent alone. Read-outs that look alike come from different tables or passages of the source.

Format in all cases: in vivo
The test system of test [1] is wheat leaf rust, Puccinia recondita. The test is described as follows: Foliar systemic activity on leaf rust. From the text:
Another type of systemic test was run in which pots of approximately 5 inch high wheat plants were sprayed with varying concentrations of the test compound. Thirty-six hours later they were sprayed six minutes in a rain machine which amounted to about one inch of normal rainfall. The plants were then placed in a greenhouse for 7 days and then inoculated with a spore suspension of wheat leaf rust, Puccinia recondita. About 7 days later lesion counts were made on ten leaves representing the sprayed leaves and new growth from each replicate and compared with similar pots of wheat plants which were untreated with a chemical and the percent disease control determined. Disease control on the new growth is a measure of systemic activity. The commercial product known by the trademarked name Plantvax, which is 2,3-dihydro-5-carboxanilido-6-methyl-1,4-oxathiin-4,4-dioxide, was used as a standard.

Test [2] shares this test system. The experiment in a line: whole plant or invertebrate. The conditions noted are these: foliar; for pest or weed control at 280.212 g/ha: read-out: % Control (without rain), foliar, 0.25 lb.; for pest or weed control at 1120.85 g/ha: read-out: % Control (without rain), foliar, 1 lb.
Test [3] has the same test system. The experiment in a line: whole plant or invertebrate. The conditions noted are these: foliar; for pest or weed control at 280.212 g/ha: read-out: % Control (with 1" of rain), foliar, 0.25 lb., 1" of rain; for pest or weed control at 1120.85 g/ha: read-out: % Control (with 1" of rain), foliar, 1 lb., 1" of rain.
The test system is the same in test [4].
Test [5] relates to leaf rust on spring wheat. The experiment in a line: Systemic field test, leaf rust on spring wheat. The conditions noted are these: 36 days after treatment.

In the case of `CCCCn1cnnc1` [Example 3, 4-n-butyl-1,2,4-triazole], the “% Rust Control, New growth” value is 100% in test [1] (1/2 lb./100 gal.), 98% in test [1] (1/6 lb./100 gal.) and 85% in test [1] (1/12 lb./100 gal.). For the same molecule, the results for the “% Rust Control, Sprayed Leaf” value in test [1] (1/2 lb./100 gal.), in test [1] (1/6 lb./100 gal.) and in test [1] (1/12 lb./100 gal.) were 99%, 99% and 97%, respectively. Further, the pest or weed control at 280.212 g/ha in test [2] and in test [3] was 100% throughout. The pest or weed control at 1120.85 g/ha in test [2] and in test [3] was 100% throughout. Besides, the “% Systemic Wheat Leaf Rust Control” value in test [4] (2.5 ppm in soil), in test [4] (5 ppm in soil) and in test [4] (10 ppm in soil) was 100% throughout.
As for `CCCCCn1cnnc1S` [Example 78, 3-mercapto-4-n-pentyl-1,2,4-triazole], the “% Rust Control, New growth” value in test [1] (1/2 lb./100 gal.) was 92%; in test [1] (1/6 lb./100 gal.), 79%; in test [1] (1/12 lb./100 gal.) it was 57%. Also, the “% Rust Control, Sprayed Leaf” value amounted to 98% in test [1] (1/2 lb./100 gal.), 96% in test [1] (1/6 lb./100 gal.) and 91% in test [1] (1/12 lb./100 gal.). Moreover, the pest or weed control at 280.212 g/ha was found to be 97% in test [2] and 100% in test [3]. The pest or weed control at 1120.85 g/ha in test [2] and in test [3] was 100% throughout. Besides, the “% Systemic Wheat Leaf Rust Control” value in test [4] (2.5 ppm in soil), in test [4] (5 ppm in soil) and in test [4] (10 ppm in soil) was 97% in each case.
For `CCCCn1c(S)nnc1C(=O)OCC` [Example 97], the “% Rust Control, New growth” value in test [1] (1/2 lb./100 gal.) is given as 54%; in test [1] (1/6 lb./100 gal.), 75%; in test [1] (1/12 lb./100 gal.), 67%. Further, the entries for the “% Rust Control, Sprayed Leaf” value in test [1] (1/2 lb./100 gal.), in test [1] (1/6 lb./100 gal.) and in test [1] (1/12 lb./100 gal.) were 86%, 73% and 81%, respectively. Besides, the pest or weed control at 280.212 g/ha in test [2] and in test [3] was 100% each time. The pest or weed control at 1120.85 g/ha in test [2] and in test [3] was 100% each time. In addition, the entries for the “% Systemic Wheat Leaf Rust Control” value in test [4] (2.5 ppm in soil), in test [4] (5 ppm in soil) and in test [4] (10 ppm in soil) were 93%, 95% and 100%, respectively.
Regarding `CCCCn1c(S)nnc1C(=O)O` [Example 95, triethanolamine salt of 3-mercapto-4-n-butyl-5-carboxy-1,2,4-triazole], the “% Rust Control, New growth” value was 90% in test [1] (1/2 lb./100 gal.), 75% in test [1] (1/6 lb./100 gal.) and 63% in test [1] (1/12 lb./100 gal.). The “% Rust Control, Sprayed Leaf” value in test [1] (1/2 lb./100 gal.) stood at 90%; in test [1] (1/6 lb./100 gal.), 78%; in test [1] (1/12 lb./100 gal.), 46%. Moreover, the “% Control (without rain)” value in test [2] (0.25 lb.) was 98%; in test [2] (1 lb.), 99%. For the same molecule, the “% Control (with 1" of rain)” value in test [3] (0.25 lb.) and in test [3] (1 lb.) was 100% each time. Besides, the entries for the “% Systemic Wheat Leaf Rust Control” value in test [4] (2.5 ppm in soil), in test [4] (5 ppm in soil) and in test [4] (10 ppm in soil) were 98%, 99% and 100%, respectively.
For `CCCCn1cnnc1SCC(N)=O` [Example 111, 3-carbamoylmethylmercapto-4-n butyl-1,2,4-triazole], the “% Rust Control, New growth” value in test [1] (1/2 lb./100 gal.) is 88%; in test [1] (1/6 lb./100 gal.) it was 59%; in test [1] (1/12 lb./100 gal.), 38%. The “% Rust Control, Sprayed Leaf” value in test [1] (1/2 lb./100 gal.) was 88%; in test [1] (1/6 lb./100 gal.), 51%; in test [1] (1/12 lb./100 gal.), 49%. The pest or weed control at 280.212 g/ha in test [2] turned out to be 100%; in test [3], 93%. For the same molecule, the pest or weed control at 1120.85 g/ha in test [2] and in test [3] was 100% throughout. Also, the “% Systemic Wheat Leaf Rust Control” value in test [4] (2.5 ppm in soil) is 76%; in test [4] (5 ppm in soil), 91%; in test [4] (10 ppm in soil), 92%.
For the molecule `CCCCn1c(SC(=O)NC)nnc1C(=O)O` [Example 100, triethanolamine salt of 3 methyl-carbamoylmercapto-4-n-butyl-5-carboxy-1,2,4-triazole], the “% Rust Control, New growth” value in test [1] (1/2 lb./100 gal.) is on record as 79%; in test [1] (1/6 lb./100 gal.), 63%; in test [1] (1/12 lb./100 gal.) it was 54%. The “% Rust Control, Sprayed Leaf” value is reported as 79% in test [1] (1/2 lb./100 gal.), 79% in test [1] (1/6 lb./100 gal.) and 57% in test [1] (1/12 lb./100 gal.). For the same molecule, the “% Control (without rain)” value in test [2] (0.25 lb.) and in test [2] (1 lb.) was 100% each time. The “% Control (with 1" of rain)” value in test [3] (0.25 lb.) and in test [3] (1 lb.) was 100% throughout. The “% Systemic Wheat Leaf Rust Control” value in test [4] (2.5 ppm in soil) is 89%; in test [4] (5 ppm in soil), 99%; in test [4] (10 ppm in soil) it was 99%.
For `CCCCCCn1cnnc1S` [Example 79, 3-mercapto-4-n-hexyl-1,2,4-triazole], the “% Rust Control, New growth” value in test [1] (1/2 lb./100 gal.) was 65%; in test [1] (1/6 lb./100 gal.) it was 48%; in test [1] (1/12 lb./100 gal.), 38%. Also, the “% Rust Control, Sprayed Leaf” value came to 96% in test [1] (1/2 lb./100 gal.), 88% in test [1] (1/6 lb./100 gal.) and 85% in test [1] (1/12 lb./100 gal.). Besides, the pest or weed control at 280.212 g/ha in test [2] and in test [3] was 100% throughout. The pest or weed control at 1120.85 g/ha in test [2] and in test [3] was 100% each time. For the same molecule, the “% Systemic Wheat Leaf Rust Control” value in test [4] (2.5 ppm in soil) turned out to be 0%; in test [4] (5 ppm in soil) it was 0%; in test [4] (10 ppm in soil) it was 54%.
Consider `CCCCn1c(SC(=O)NC)nnc1C(=O)O` [Example 99, 3-methylcarbamoylmercapto-4-n-butyl 5-carboxy-1,2,4-triazole], for which the figures for the “% Rust Control, New growth” value in test [1] (1/2 lb./100 gal.), in test [1] (1/6 lb./100 gal.) and in test [1] (1/12 lb./100 gal.) were 82%, 69% and 56%, respectively. In addition, the entries for the “% Rust Control, Sprayed Leaf” value in test [1] (1/2 lb./100 gal.), in test [1] (1/6 lb./100 gal.) and in test [1] (1/12 lb./100 gal.) were 69%, 74% and 81%, respectively. Moreover, the pest or weed control at 280.212 g/ha in test [2] came to 99%; in test [3], 100%. The pest or weed control at 1120.85 g/ha was found to be 99% in test [2] and 100% in test [3]. Besides, the “% Systemic Wheat Leaf Rust Control” value in test [4] (2.5 ppm in soil) turned out to be 96%; in test [4] (5 ppm in soil), 99%; in test [4] (10 ppm in soil), 100%.
Consider `Sc1nncn1Cc1ccccc1` [Example 84, 3-mercapto-4-benzyl-1,2,4-triazole], for which the “% Rust Control, New growth” value in test [1] (1/2 lb./100 gal.) turned out to be 54%; in test [1] (1/6 lb./100 gal.), 34%; in test [1] (1/12 lb./100 gal.), 36%. In addition, the “% Rust Control, Sprayed Leaf” value in test [1] (1/2 lb./100 gal.) turned out to be 78%; in test [1] (1/6 lb./100 gal.), 63%; in test [1] (1/12 lb./100 gal.), 54%. In addition, the pest or weed control at 280.212 g/ha in test [2] and in test [3] was 100% each time. The pest or weed control at 1120.85 g/ha in test [2] and in test [3] was 100% throughout. Further, the “% Systemic Wheat Leaf Rust Control” value in test [4] (2.5 ppm in soil) is 0%; in test [4] (5 ppm in soil) it was 34%; in test [4] (10 ppm in soil), 64%.
As for `CCCCn1c(S)nnc1C(=O)O` [Example 94, 3-mercapto-4-n-butyl-5-carboxy-1,2,4-triazole], the “% Rust Control, New growth” value in test [1] (1/2 lb./100 gal.) came to 86%; in test [1] (1/6 lb./100 gal.) it was 73%; in test [1] (1/12 lb./100 gal.), 61%. Also, the “% Rust Control, Sprayed Leaf” value in test [1] (1/2 lb./100 gal.) came to 99%; in test [1] (1/6 lb./100 gal.), 91%; in test [1] (1/12 lb./100 gal.) it was 71%. The pest or weed control at 280.212 g/ha turned out to be 100% in test [2] and 82% in test [3]. For the same molecule, the pest or weed control at 1120.85 g/ha in test [2] was determined as 100%; in test [3] it was 83%. For the same molecule, the “% Leaves infected” value turned out to be 35% in test [5] (0.5 lbs./acre), 17% in test [5] (1 lbs./acre) and 7% in test [5] (2 lbs./acre). Also, the entries for the “% Systemic Wheat Leaf Rust Control” value in test [4] (2.5 ppm in soil), in test [4] (5 ppm in soil) and in test [4] (10 ppm in soil) were 95%, 99% and 100%, respectively.
Regarding `c1ccc(Cn2cnnc2)cc1` [Example 49, 4-benzyl-1,2,4-triazole], the results for the “% Rust Control, New growth” value in test [1] (1/2 lb./100 gal.), in test [1] (1/6 lb./100 gal.) and in test [1] (1/12 lb./100 gal.) were 87%, 54% and 46%, respectively. Moreover, the “% Rust Control, Sprayed Leaf” value was determined as 99% in test [1] (1/2 lb./100 gal.), 76% in test [1] (1/6 lb./100 gal.) and 42% in test [1] (1/12 lb./100 gal.). Moreover, the pest or weed control at 280.212 g/ha in test [2] was found to be 95%; in test [3], 100%. Also, the pest or weed control at 1120.85 g/ha in test [2] and in test [3] was 100% throughout. The figures for the “% Systemic Wheat Leaf Rust Control” value in test [4] (2.5 ppm in soil), in test [4] (5 ppm in soil) and in test [4] (10 ppm in soil) were 96%, 98% and 99%, respectively.
